The results in this text go back to PubChem BioAssay (NCI).

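Cells were grown in 96-well plates and exposed to each compound for 48 hours at five concentrations; endpoints were interpolated linearly between bracketing concentrations, or set to the highest concentration if not reached. GI50: concentration for 50% inhibition of growth. Definition used: TGI = concentration required for complete inhibition of growth.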 Where only a bound is given, the exact number is not on record here.

Among the test systems are NCI-H226 lung; SK-MEL-5 melanoma; MOLT-4 leukemia; OVCAR-4 ovarian; SK-MEL-2 melanoma; LOX IMVI melanoma; SF-539 CNS; SK-MEL-28 melanoma; PC-3 prostate; MDA-MB-231 breast; 786-0 renal.
Holding throughout (experiment): NCI tumour cell line growth inhibition, 48 h

Consider `CNC(=O)OCc1c(CO)nc(SC)n1C`, for which the TGI with NCI-H226 lung, in the assay on SK-MEL-5 melanoma, in the assay with MOLT-4 leukemia, in the assay with OVCAR-4 ovarian, in the assay with SK-MEL-2 melanoma and in the assay with LOX IMVI melanoma was greater than 100 µM each time. Further, the TGI in the assay on SF-539 CNS and with SK-MEL-28 melanoma was greater than 100 µM in each case.
Consider `CC1=NN(c2cccc(Cl)c2)C2(SCC(=O)N2c2nc3ccccc3s2)/C1=C\c1cccs1` (stereo unspecified), for which the TGI in the assay with NCI-H226 lung was determined as 50.7 µM; in the assay with SK-MEL-5 melanoma, 36.7 µM; in the assay on MOLT-4 leukemia, 30.4 µM; with OVCAR-4 ovarian it was 66 µM; in the assay with PC-3 prostate it was 65.6 µM; with SK-MEL-2 melanoma, 41.8 µM. For the same molecule, the TGI worked out at 87 µM with MDA-MB-231 breast; 66.5 µM in the assay on LOX IMVI melanoma; 16.1 µM in the assay with SF-539 CNS; 41.1 µM with 786-0 renal; 85.6 µM with SK-MEL-28 melanoma.
Consider `Fc1ccc(C(OCCN2CCC3CCC(C2)N3C/C=C/c2ccco2)c2ccc(F)cc2)cc1` (stereo unspecified), for which the TGI turned out to be 28.8 µM in the assay with NCI-H226 lung; 14.4 µM in the assay with SK-MEL-5 melanoma; 20.4 µM with MOLT-4 leukemia; 25.2 µM with OVCAR-4 ovarian; 20.6 µM with PC-3 prostate; 26.2 µM in the assay with SK-MEL-2 melanoma. Moreover, the TGI in the assay with MDA-MB-231 breast worked out at 23.6 µM; in the assay with LOX IMVI melanoma, 24.2 µM; with SF-539 CNS it was 28.4 µM; with 786-0 renal, 22.2 µM; in the assay with SK-MEL-28 melanoma, 19.5 µM.
Take `COc1cccc2c1Cc1cc(-c3ccccc3)[n+](C)n1-2`: the TGI was 47.7 µM with NCI-H226 lung; 21.7 µM in the assay on SK-MEL-5 melanoma; greater than 100 µM in the assay with MOLT-4 leukemia; 14.5 µM in the assay with OVCAR-4 ovarian; 89.7 µM with PC-3 prostate; 50 µM in the assay on SK-MEL-2 melanoma. The TGI in the assay on MDA-MB-231 breast is 81.7 µM; with LOX IMVI melanoma, 29.3 µM; in the assay on SF-539 CNS it was 44.1 µM; in the assay on 786-0 renal, 84.2 µM; with SK-MEL-28 melanoma, greater than 100 µM.
Regarding `COc1cc2c(ccc3c4cc(OC)c(OC)cc4c[n+](C)c23)cc1O`, the TGI in the assay on NCI-H226 lung was 9.14 µM; in the assay with SK-MEL-5 melanoma, 52.7 µM; with MOLT-4 leukemia it was 19.2 µM; in the assay with OVCAR-4 ovarian it was greater than 65.8 µM; in the assay with SK-MEL-2 melanoma, greater than 71.5 µM; in the assay on LOX IMVI melanoma, greater than 75 µM. For the same molecule, the TGI is 28.7 µM in the assay with SF-539 CNS and greater than 75 µM with SK-MEL-28 melanoma.
Regarding `Cc1nn(-c2ccccc2)c(C)c1/C=N/N=C1\SCC(=O)N1c1ccccc1`, the TGI in the assay on NCI-H226 lung is 66.5 µM; in the assay on SK-MEL-5 melanoma, 30.3 µM; in the assay on MOLT-4 leukemia, greater than 100 µM; with OVCAR-4 ovarian it was 41.7 µM; in the assay with PC-3 prostate it was 51.5 µM; in the assay on SK-MEL-2 melanoma, 58.4 µM. In addition, the TGI with MDA-MB-231 breast is greater than 100 µM; in the assay on LOX IMVI melanoma, 48.1 µM; with SF-539 CNS, 67.2 µM; in the assay with 786-0 renal, 37.7 µM; with SK-MEL-28 melanoma, 67.9 µM.
On to `CCC1CN(C(=O)c2ccccc2)C(Cc2c[nH]c3ccccc23)C(=O)C1CC(=O)OC` (stereo unspecified), for which the TGI with NCI-H226 lung, with SK-MEL-5 melanoma, in the assay on MOLT-4 leukemia, with OVCAR-4 ovarian, in the assay on PC-3 prostate and in the assay on SK-MEL-2 melanoma was greater than 100 µM each time. In addition, the TGI in the assay on LOX IMVI melanoma, in the assay with SF-539 CNS and in the assay on SK-MEL-28 melanoma was greater than 100 µM throughout.
Turning to `CCCNC(=O)CCC(C)C1CCC2C3C(C[C@H](OC(C)=O)[C@]12C)[C@@]1(C)CCC2(C[C@H]1C[C@H]3OC(C)=O)OOC1(CC[C@]3(C)C4C[C@H](OC(C)=O)[C@]5(C)C(C(C)CCC(=O)NCCC)CCC5C4[C@H](OC(C)=O)C[C@@H]3C1)OO2` (stereo partly specified), the TGI in the assay with NCI-H226 lung was greater than 84.7 µM; in the assay on SK-MEL-5 melanoma, greater than 100 µM; with MOLT-4 leukemia, greater than 100 µM; in the assay on OVCAR-4 ovarian it was greater than 100 µM; in the assay on PC-3 prostate, greater than 100 µM; in the assay with SK-MEL-2 melanoma, greater than 100 µM. Moreover, the TGI was greater than 83.4 µM in the assay with MDA-MB-231 breast; greater than 100 µM in the assay on LOX IMVI melanoma; greater than 100 µM in the assay on SF-539 CNS; greater than 100 µM in the assay with 786-0 renal; greater than 100 µM in the assay with SK-MEL-28 melanoma. For the same molecule, the GI50 in the assay with SF-539 CNS is greater than 82.2 µM.
As for `COc1cc2c(cc1O)CC[C@@H]1[C@@H]2CC[C@]2(C)[C@@H](OCCN(C)C)CC[C@@H]12`, the GI50 with NCI-H226 lung was 1.17 µM; in the assay on SK-MEL-5 melanoma, 0.0828 µM; in the assay with OVCAR-4 ovarian, 0.306 µM; in the assay on SK-MEL-2 melanoma, 0.23 µM; in the assay with MDA-MB-231 breast, 0.153 µM; in the assay with LOX IMVI melanoma, 0.0949 µM. In addition, the GI50 in the assay with SF-539 CNS was 0.129 µM. For the same molecule, the TGI in the assay on NCI-H226 lung was 6.04 µM; in the assay on SK-MEL-5 melanoma, 0.164 µM; in the assay with OVCAR-4 ovarian, 5.84 µM; with SK-MEL-2 melanoma, 1.04 µM; in the assay on MDA-MB-231 breast it was 0.595 µM; with LOX IMVI melanoma, 0.192 µM. Also, the TGI in the assay with SF-539 CNS is 0.414 µM.
For the molecule `O=C(OCN1C(=O)C2C3C=CC(C2C1=O)C1C2C(=O)N(COC(=O)C4CCCN4)C(=O)C2C31)C1CCCN1` (stereo unspecified), the TGI in the assay with NCI-H226 lung is greater than 100 µM; in the assay with SK-MEL-5 melanoma it was greater than 100 µM; in the assay with MOLT-4 leukemia, greater than 95.3 µM; in the assay on OVCAR-4 ovarian, greater than 100 µM; in the assay with SK-MEL-2 melanoma, greater than 31.6 µM; with LOX IMVI melanoma, greater than 64.5 µM. The TGI is greater than 100 µM in the assay with SF-539 CNS, greater than 60.6 µM in the assay on 786-0 renal and greater than 100 µM in the assay with SK-MEL-28 melanoma.
Take `CCOC(=O)C1=NN(c2ccc(C)cc2)C2=CC(C)=NN(C)C(=S)N21`: the TGI in the assay with SK-MEL-5 melanoma, in the assay with MOLT-4 leukemia, with OVCAR-4 ovarian, in the assay with PC-3 prostate, in the assay with SK-MEL-2 melanoma and in the assay on MDA-MB-231 breast was greater than 100 µM throughout. Moreover, the TGI in the assay with LOX IMVI melanoma, with SF-539 CNS and with SK-MEL-28 melanoma was greater than 100 µM in each case.
`[N-]=[N+]=CC(=O)c1ccccc1C#CCCc1ccccc1`: the TGI with NCI-H226 lung was 98.3 µM; with SK-MEL-5 melanoma, 32.2 µM; with MOLT-4 leukemia, 40.9 µM; in the assay with OVCAR-4 ovarian, greater than 100 µM; with SK-MEL-2 melanoma, 79.7 µM; with LOX IMVI melanoma, greater than 100 µM. For the same molecule, the TGI in the assay on SF-539 CNS and with SK-MEL-28 melanoma was greater than 100 µM each time.
Regarding `CCn1c(-c2ccc(N=NNc3ccc(-c4n[nH]c(=S)n4CC)cc3)cc2)n[nH]c1=S`, the TGI turned out to be 5.86 µM in the assay on NCI-H226 lung; 3.48 µM with SK-MEL-5 melanoma; 6.28 µM with MOLT-4 leukemia; 5.41 µM in the assay on OVCAR-4 ovarian; 8.34 µM with PC-3 prostate; 4.45 µM in the assay on SK-MEL-2 melanoma. The TGI in the assay on MDA-MB-231 breast was greater than 100 µM; in the assay with LOX IMVI melanoma it was greater than 100 µM; in the assay with 786-0 renal it was 37.2 µM; in the assay on SK-MEL-28 melanoma it was greater than 100 µM.
